The subject of one test is Acinetobacter baumannii. As to the kind of experiment: microbe, parasite or virus in culture. As to conditions: ATCC 19606, 18 h, ASSAY_TEST Inhibition of Bacterial Growth, detection method Absorption (OD600), MEDIA CAMHB, plate type 384well, NBS, CORNING #3640.
The subject of the next test is Staphylococcus aureus. The test can be described thus: microbe, parasite or virus in culture. As to conditions: ATCC 43300, 18 h, ASSAY_TEST Inhibition of Bacterial Growth, detection method Absorption (OD600), MEDIA CAMHB, plate type 384well, NBS, CORNING #3640.
The subject of a further test is Candida albicans. As to the kind of experiment: microbe, parasite or virus in culture. Conditions: ATCC 90028, ASSAY_TEST Inhibition of Fungal Growth, detection method Absorption (OD530), plate type 384well, NBS, CORNING #3640.
The subject of the next test is Escherichia coli. As to the kind of experiment: microbe, parasite or virus in culture. Conditions: ATCC 25922, 18 h, ASSAY_TEST Inhibition of Bacterial Growth, detection method Absorption (OD600), MEDIA CAMHB, plate type 384well, NBS, CORNING #3640.
The next test has as its system Pseudomonas aeruginosa. As to the kind of experiment: microbe, parasite or virus in culture. As to conditions: ATCC 27853, 18 h, ASSAY_TEST Inhibition of Bacterial Growth, detection method Absorption (OD600), MEDIA CAMHB, plate type 384well, NBS, CORNING #3640.
A further test relates to Klebsiella pneumoniae. The test can be described thus: microbe, parasite or virus in culture. As to conditions: ATCC 700603, 18 h, ASSAY_TEST Inhibition of Bacterial Growth, detection method Absorption (OD600), MEDIA CAMHB, plate type 384well, NBS, CORNING #3640.
Another test has as its system HEK293. As to the kind of experiment: cells. It counts as functional. As to conditions: Homo sapiens, ATCC CRL1573, HEK293; ASSAY_TEST Inhibition of Cell Viability; detection method Resazurin; Fluorescence (ex560/em590); MEDIA DMEM with 10% FBS; plate type 384well; TC; CORNING #3712; time 18 hr. For orientation: Resazurin is reduced to fluorescent resorufin, in cell work by metabolically active cells.

The text below walks through data of ChEMBL document CHEMBL4513135, “CO-ADD screening of IQOG CSIS (Spain) compounds”.

One may read the CC50 as the concentration giving 50% cytotoxicity. The low end stands for greater toxicity to the cells, the high end for lower toxicity to the cells.

Values after ≈ are worked out from the molar mass of the structure shown.

Description for Acinetobacter baumannii: Antibacterial activity against Acinetobacter baumannii ATCC 19606 (CO-ADD:GN_034); MIC in CAMBH media using NBS plates, by OD600
Description for Candida albicans: Antifungal activity against Candida albicans ATCC 90028 (CO-ADD:FG_001); MIC in YNB media using NBS plates, by OD630
Description for Cryptococcus neoformans: Antifungal activity against Cryptococcus neoformans H99 ATCC 208821 (CO-ADD:FG_002); MIC in YNB media using NBS plates, by Resazurin OD(600-570)
Description for Escherichia coli: Antibacterial activity against Escherichia coli ATCC 25922 (CO-ADD:GN_001); MIC in CAMBH media using NBS plates, by OD(600)
Description for Klebsiella pneumoniae: Antibacterial activity against Klebsiella pneumoniae MDR ATCC 70063 (CO-ADD:GN_003); MIC in CAMBH media using NBS plates, by OD(600)
Description for Pseudomonas aeruginosa: Antibacterial activity against Pseudomonas aeruginosa ATCC 27853 (CO-ADD:GN_042); MIC in CAMBH media using NBS plates, by OD(600)
Description for Staphylococcus aureus: Antibacterial activity against Staphylococcus aureus MRSA ATCC 43300 (CO-ADD:GP_020); MIC in CAMBH media, using NBS plates, by OD(600)

For `OCc1ccc(O)c2ncccc12`, the MIC against Acinetobacter baumannii is above 32 µg/mL; against Staphylococcus aureus, above 32 µg/mL; in the test on Candida albicans, 16 µg/mL (≈ 91.3 µM); against Escherichia coli, above 32 µg/mL; in the test on Pseudomonas aeruginosa, 32 µg/mL (≈ 183 µM); in the test with Klebsiella pneumoniae, above 32 µg/mL. For the same compound, in the test with Cryptococcus neoformans, the MIC turned out to be 16 µg/mL (≈ 91.3 µM). In addition, the CC50 in the test with HEK293 stood at 17.3 µg/mL (≈ 98.8 µM).

Consider `N#Cc1c(N)nc(Sc2ccccc2)c(C#N)c1-c1ccccc1`, for which the MIC in the test on Acinetobacter baumannii, in the test on Staphylococcus aureus, in the test with Candida albicans, in the test on Escherichia coli, in the test with Pseudomonas aeruginosa and with Klebsiella pneumoniae was above 32 µg/mL each time. Besides, the MIC against Cryptococcus neoformans is above 32 µg/mL. Also, in the test on HEK293, the CC50 is above 32 µg/mL.

Turning to `CC#CCN(C)Cc1cc2cc(OCc3ccccc3)ccc2[nH]1.O=C(O)C(=O)O`, the MIC in the test on Acinetobacter baumannii, against Staphylococcus aureus, against Candida albicans, in the test on Escherichia coli, with Pseudomonas aeruginosa and in the test with Klebsiella pneumoniae was above 32 µg/mL each time. Also, the MIC in the test on Cryptococcus neoformans was above 32 µg/mL. Moreover, the CC50 with HEK293 was above 32 µg/mL.

For `Oc1ccc(CCl)c2cccnc12`, the MIC against Acinetobacter baumannii was above 32 µg/mL; against Staphylococcus aureus, above 32 µg/mL; in the test on Candida albicans, above 32 µg/mL; in the test with Escherichia coli, above 32 µg/mL; in the test with Pseudomonas aeruginosa it was 32 µg/mL (≈ 165 µM); against Klebsiella pneumoniae, above 32 µg/mL. Also, the MIC in the test with Cryptococcus neoformans amounted to 16 µg/mL (≈ 82.6 µM). For the same compound, half-maximal cytotoxicity with HEK293 (CC50) was put at 5.81 µg/mL (≈ 30 µM).

Turning to `N#Cc1c(NCCC2CCN(Cc3ccccc3)CC2)nc(NCCC2CCN(Cc3ccccc3)CC2)c(C#N)c1-c1ccccc1`, the MIC with Acinetobacter baumannii, against Staphylococcus aureus, in the test with Candida albicans, with Escherichia coli, in the test with Pseudomonas aeruginosa and in the test on Klebsiella pneumoniae was above 32 µg/mL each time. For the same compound, the MIC in the test with Cryptococcus neoformans was above 32 µg/mL. Moreover, in the test with HEK293, the CC50 is above 32 µg/mL.

On to `N#Cc1c(N)[n+]([O-])c2ccccc2[n+]1[O-]`, for which the MIC is above 32 µg/mL with Acinetobacter baumannii; above 32 µg/mL with Staphylococcus aureus; above 32 µg/mL in the test with Candida albicans; 16 µg/mL (≈ 79.1 µM) in the test on Escherichia coli; above 32 µg/mL with Pseudomonas aeruginosa; above 32 µg/mL in the test with Klebsiella pneumoniae. In the test with Cryptococcus neoformans, this compound gave an MIC above 32 µg/mL. The compound further yielded a CC50 with HEK293 above 32 µg/mL.

Turning to `Brc1nc(Br)c(Br)[nH]1`, the MIC against Acinetobacter baumannii, in the test with Staphylococcus aureus, with Candida albicans, with Escherichia coli, against Pseudomonas aeruginosa and in the test on Klebsiella pneumoniae was above 32 µg/mL each time. This compound gave an MIC in the test with Cryptococcus neoformans above 32 µg/mL. The CC50 in the test on HEK293 was above 32 µg/mL.

Consider `Cc1ccc2nc(Cl)c(/C=N/Cc3ccccc3)cc2c1`, for which the MIC against Acinetobacter baumannii, against Staphylococcus aureus, in the test on Candida albicans, in the test on Escherichia coli, against Pseudomonas aeruginosa and with Klebsiella pneumoniae was above 32 µg/mL in each case. The compound also returned an MIC against Cryptococcus neoformans above 32 µg/mL. The compound further yielded a CC50 with HEK293 above 32 µg/mL.

For the compound `N#CC1=C(N)Oc2c(ccc3ccccc23)C1c1ccc([N+](=O)[O-])cc1` (configuration not stated), the MIC in the test on Acinetobacter baumannii, in the test with Staphylococcus aureus, in the test on Candida albicans, in the test on Escherichia coli, in the test with Pseudomonas aeruginosa and with Klebsiella pneumoniae was above 32 µg/mL each time. Also, in the test with Cryptococcus neoformans, the MIC was above 32 µg/mL. Also, in the test on HEK293, the CC50 was determined as 0.259 µg/mL (≈ 0.754 µM).

With `C#CCN(C)c1nc(NCCCC2CCN(Cc3ccccc3)CC2)c(C#N)c(-c2ccccc2)c1C#N.Cl`, the MIC with Acinetobacter baumannii, against Staphylococcus aureus, with Candida albicans, against Escherichia coli, in the test on Pseudomonas aeruginosa and against Klebsiella pneumoniae was above 32 µg/mL throughout. Also, the MIC with Cryptococcus neoformans was 32 µg/mL. The compound also showed a CC50 in the test with HEK293 of 8.06 µg/mL.

`Cl.Nc1c2c(nc3[nH]c4ccccc4c13)CCCC2`: the MIC is above 32 µg/mL in the test on Acinetobacter baumannii; above 32 µg/mL in the test on Staphylococcus aureus; above 32 µg/mL against Candida albicans; above 32 µg/mL in the test with Escherichia coli; 16 µg/mL in the test on Pseudomonas aeruginosa; above 32 µg/mL in the test on Klebsiella pneumoniae. The compound further registered an MIC in the test on Cryptococcus neoformans above 32 µg/mL. In the test with HEK293, this compound yielded a CC50 of 4.74 µg/mL.

As to `COc1ccc(OC)c2nc(Cl)c(C=O)cc12`, the MIC against Acinetobacter baumannii, against Staphylococcus aureus, with Candida albicans, in the test on Escherichia coli, in the test with Pseudomonas aeruginosa and in the test with Klebsiella pneumoniae was above 32 µg/mL throughout. Besides, in the test on Cryptococcus neoformans, the MIC was above 32 µg/mL. This compound also displayed a CC50 in the test with HEK293 above 32 µg/mL.

For `Cn1ccnc1C1c2c(nc3c(c2N)CCCCC3)Oc2ccc3ccccc3c21` (configuration not stated), the MIC with Acinetobacter baumannii, against Staphylococcus aureus, in the test on Candida albicans, in the test on Escherichia coli, against Pseudomonas aeruginosa and against Klebsiella pneumoniae was above 32 µg/mL each time. Moreover, in the test on Cryptococcus neoformans, the MIC is above 32 µg/mL. The compound further displayed a CC50 in the test on HEK293 above 32 µg/mL.

Take `Nc1c2c(nc3c1CC(c1ccccc1)C(=O)N3)CCCC2` (configuration not stated): the MIC in the test with Acinetobacter baumannii, in the test with Staphylococcus aureus, in the test on Candida albicans, against Escherichia coli, in the test on Pseudomonas aeruginosa and against Klebsiella pneumoniae was above 32 µg/mL in each case. Moreover, the MIC in the test with Cryptococcus neoformans is above 32 µg/mL. The compound also gave a CC50 in the test on HEK293 of 11.3 µg/mL (≈ 38.5 µM).

`O=C(CI)NCc1ccccc1`: the MIC with Acinetobacter baumannii, with Staphylococcus aureus, against Candida albicans, in the test with Escherichia coli, against Pseudomonas aeruginosa and against Klebsiella pneumoniae was above 32 µg/mL throughout. The compound also showed an MIC with Cryptococcus neoformans of 16 µg/mL (≈ 58.2 µM). This compound also returned a CC50 in the test on HEK293 of 8.25 µg/mL (≈ 30 µM).

Turning to `N#CC(C#N)=Cc1cccc([N+](=O)[O-])c1`, the MIC in the test with Acinetobacter baumannii is above 32 µg/mL; against Staphylococcus aureus, above 32 µg/mL; against Candida albicans it was above 32 µg/mL; against Escherichia coli, above 32 µg/mL; against Pseudomonas aeruginosa, 32 µg/mL (≈ 161 µM); in the test with Klebsiella pneumoniae it was above 32 µg/mL. In the test on Cryptococcus neoformans, this compound registered an MIC above 32 µg/mL. Further, the CC50 in the test with HEK293 was above 32 µg/mL.

For `COc1nc2n[nH]c(N)c2c(-c2ccccc2)c1C#N`, the MIC in the test with Acinetobacter baumannii, with Staphylococcus aureus, with Candida albicans, against Escherichia coli, against Pseudomonas aeruginosa and with Klebsiella pneumoniae was above 32 µg/mL throughout. This compound registered an MIC against Cryptococcus neoformans above 32 µg/mL. This compound also registered a CC50 in the test with HEK293 of 5.47 µg/mL (≈ 20.6 µM).

`Cc1ccc2nc(Cl)c(/C=N/O)cc2c1`: the MIC in the test with Acinetobacter baumannii, in the test with Staphylococcus aureus, against Candida albicans, in the test on Escherichia coli, in the test on Pseudomonas aeruginosa and against Klebsiella pneumoniae was above 32 µg/mL throughout. Moreover, the MIC in the test with Cryptococcus neoformans is above 32 µg/mL. In the test with HEK293, this compound displayed a CC50 above 32 µg/mL.

In the case of `CCOC(=O)C(=Cc1ccccc1)C(C)=O`, the MIC in the test on Acinetobacter baumannii was above 32 µg/mL; against Staphylococcus aureus, above 32 µg/mL; against Candida albicans it was 16 µg/mL (≈ 73.3 µM); against Escherichia coli, above 32 µg/mL; in the test with Pseudomonas aeruginosa, above 32 µg/mL; in the test on Klebsiella pneumoniae, above 32 µg/mL. In the test with Cryptococcus neoformans, the MIC was 8 µg/mL (≈ 36.7 µM). The same compound returned a CC50 in the test with HEK293 of 13.5 µg/mL (≈ 61.9 µM).

As for `CC(C)(C)OC(=O)n1c(COC(=O)NC2CCN(Cc3ccccc3)CC2)cc2cc(OCc3ccccc3)ccc21.O=C(O)C(=O)O`, the MIC with Acinetobacter baumannii was above 32 µg/mL; with Staphylococcus aureus it was above 32 µg/mL; in the test with Candida albicans it was 32 µg/mL; in the test on Escherichia coli it was above 32 µg/mL; in the test with Pseudomonas aeruginosa, above 32 µg/mL; against Klebsiella pneumoniae, above 32 µg/mL. The compound also had an MIC in the test with Cryptococcus neoformans of 16 µg/mL. In the test with HEK293, this compound yielded a CC50 of 9.19 µg/mL.

`C#CCNCc1cc2cc(OCc3ccccc3)ccc2[nH]1.Cl`: the MIC against Acinetobacter baumannii, with Staphylococcus aureus, against Candida albicans, with Escherichia coli, with Pseudomonas aeruginosa and against Klebsiella pneumoniae was above 32 µg/mL throughout. Also, the MIC against Cryptococcus neoformans is above 32 µg/mL. The compound also displayed a CC50 in the test on HEK293 of 4.04 µg/mL.

Turning to `Cl.Oc1ccc(CCl)c2cccnc12`, the MIC against Acinetobacter baumannii was above 32 µg/mL; against Staphylococcus aureus, 4 µg/mL; against Candida albicans it was 16 µg/mL; against Escherichia coli it was above 32 µg/mL; in the test on Pseudomonas aeruginosa, 32 µg/mL; in the test with Klebsiella pneumoniae it was above 32 µg/mL. In addition, the MIC against Cryptococcus neoformans was 1 µg/mL. The same compound returned a CC50 in the test on HEK293 of 2.26 µg/mL.

As for `Cc1ccc2nc(Cl)c(C=O)cc2c1`, the MIC with Acinetobacter baumannii, against Staphylococcus aureus, against Candida albicans, in the test on Escherichia coli, in the test on Pseudomonas aeruginosa and in the test with Klebsiella pneumoniae was above 32 µg/mL throughout. The compound further registered an MIC against Cryptococcus neoformans of 32 µg/mL (≈ 156 µM). Also, in the test with HEK293, the CC50 amounted to 24.1 µg/mL (≈ 117 µM).

As for `Cl.ClCc1ccncc1`, the MIC in the test on Acinetobacter baumannii was above 32 µg/mL; in the test on Staphylococcus aureus it was above 32 µg/mL; in the test on Candida albicans, 32 µg/mL; against Escherichia coli, above 32 µg/mL; in the test on Pseudomonas aeruginosa, above 32 µg/mL; in the test on Klebsiella pneumoniae, above 32 µg/mL. This compound registered an MIC against Cryptococcus neoformans above 32 µg/mL. In the test with HEK293, this compound came in with a CC50 above 32 µg/mL.
